Here are results for 1 molecule from article PMC10975047, “Antimicrobial Activity of 2-(Piperazin-1-yl)naphtho[2,3-d]thiazole-4,9-dione against Staphylococcus Strains” (Molecules, 2024).

Molecules are shown by their SMILES.

The target of this experiment is T1, DNA gyrase (Staphylococcus aureus, UniProt P0A0K8+P20831).
T1 construct: gene gyrA; with DNA gyrase subunit B (GyrB)
In words: DNA gyrase supercoiling assay (H19 dye fluorescence, ProFoldin kit). The experiment is classed as biochemical.

T1 sequence (P0A0K8 2-644): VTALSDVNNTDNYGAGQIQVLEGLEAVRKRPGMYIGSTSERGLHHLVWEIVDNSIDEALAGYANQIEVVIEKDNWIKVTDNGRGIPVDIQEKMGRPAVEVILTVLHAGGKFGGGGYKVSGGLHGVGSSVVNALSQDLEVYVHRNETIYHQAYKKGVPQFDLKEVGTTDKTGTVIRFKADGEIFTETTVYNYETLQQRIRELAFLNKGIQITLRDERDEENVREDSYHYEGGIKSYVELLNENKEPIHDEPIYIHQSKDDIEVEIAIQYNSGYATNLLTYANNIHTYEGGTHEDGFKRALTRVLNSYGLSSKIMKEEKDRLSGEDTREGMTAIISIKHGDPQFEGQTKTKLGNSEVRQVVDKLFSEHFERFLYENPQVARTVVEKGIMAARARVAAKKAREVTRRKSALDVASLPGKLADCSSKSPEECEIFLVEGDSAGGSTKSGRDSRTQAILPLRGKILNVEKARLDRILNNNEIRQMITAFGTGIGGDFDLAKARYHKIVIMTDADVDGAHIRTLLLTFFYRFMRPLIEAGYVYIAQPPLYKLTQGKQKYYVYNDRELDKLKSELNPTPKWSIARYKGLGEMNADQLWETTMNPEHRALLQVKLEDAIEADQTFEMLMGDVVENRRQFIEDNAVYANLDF
T1 sequence (P20831 whole entry): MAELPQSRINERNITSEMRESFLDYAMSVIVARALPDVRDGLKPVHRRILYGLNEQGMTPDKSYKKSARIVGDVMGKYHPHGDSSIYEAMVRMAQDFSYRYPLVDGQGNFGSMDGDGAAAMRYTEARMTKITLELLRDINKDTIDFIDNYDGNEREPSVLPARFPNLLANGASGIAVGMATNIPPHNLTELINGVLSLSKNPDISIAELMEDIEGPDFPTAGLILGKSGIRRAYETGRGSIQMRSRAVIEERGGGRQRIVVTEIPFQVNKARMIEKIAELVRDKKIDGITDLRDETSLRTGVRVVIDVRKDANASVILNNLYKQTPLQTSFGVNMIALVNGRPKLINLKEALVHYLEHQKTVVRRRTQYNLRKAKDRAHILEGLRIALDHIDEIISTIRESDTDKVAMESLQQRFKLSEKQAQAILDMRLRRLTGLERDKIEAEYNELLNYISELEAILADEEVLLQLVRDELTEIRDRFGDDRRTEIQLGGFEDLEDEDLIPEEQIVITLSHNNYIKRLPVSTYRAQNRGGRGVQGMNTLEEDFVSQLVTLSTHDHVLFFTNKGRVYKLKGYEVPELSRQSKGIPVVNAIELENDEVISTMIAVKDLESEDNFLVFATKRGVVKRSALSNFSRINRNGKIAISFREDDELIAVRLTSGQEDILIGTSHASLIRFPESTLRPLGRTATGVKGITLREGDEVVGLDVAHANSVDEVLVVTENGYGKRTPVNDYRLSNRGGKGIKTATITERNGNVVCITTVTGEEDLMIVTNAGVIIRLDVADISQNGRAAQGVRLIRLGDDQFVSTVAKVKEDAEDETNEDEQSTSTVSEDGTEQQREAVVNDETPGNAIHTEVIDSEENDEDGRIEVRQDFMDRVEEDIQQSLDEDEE

`O=C1c2ccccc2C(=O)c2sc(N3CCNCC3)nc21` [PNT, 2-(piperazin-1-yl)naphtho[2,3-d]thiazole-4,9-dione] had an IC50 of 372 µM.
